tested on: PDE4; assay: PDE4 Assay Procedure ([3H]-cAMP SPA); format: biochemical; conditions: 15 nM [3H]-cAMP, 1 hour at room temperature, SPA beads; compounds tested from 10 μM to 10 pM

IC50	SMILES
3 nM	CC1(C)CCc2c(N3CCSCC3)nc3sc4c(NCc5ccccn5)ncnc4c3c2C1 [Example 16, 2,2-Dimethyl-N-(pyridin-2-ylmethyl)-5-thiomorpholin-4-yl-1,2,3,4-tetrahydropyrimido[4′,5′:4,5]thieno[2,3-c]isoquinolin-8-amine]
8.1 nM	CC1(C)CCc2c(N3CCCC3)nc3sc4c(NCCN5CCOCC5)ncnc4c3c2C1 [Example 23, 2,2-Dimethyl-N-(2-morpholin-4-ylethyl)-5-pyrrolidin-1-yl-1,2,3,4-tetrahydropyrimido[4′,5′:4,5]thieno[2,3-c]isoquinolin-8-amine]
14 nM	CC1(C)CCc2c(N3CCCC3)nc3sc4c(NCc5ccncc5)ncnc4c3c2C1 [Example 24, 2,2-Dimethyl-N-(pyridin-4-ylmethyl)-5-pyrrolidin-1-yl-1,2,3,4-tetrahydropyrimido[4′,5′:4,5]thieno[2,3-c]isoquinolin-8-amine]
1.5 nM	CC1(C)CCc2c(N3CCCC3)nc3sc4c(NCc5cccnc5)ncnc4c3c2C1 [Example 25]
7.9 nM	CCOC(=O)N1CCN(CCNc2ncnc3c2sc2nc(N(C)C)c4c(c23)CC(C)(C)CC4)CC1 [Example 43, Ethyl 4-(2-{[5-(dimethylamino)-2,2-dimethyl-1,2,3,4-tetrahydropyrimido[4′,5′:4,5]thieno[2,3-c]isoquinolin-8-yl]amino}ethyl)piperazine-1-carboxylate]
10 nM	CCN(C)c1nc2sc3c(NCC(=O)NCC4CCCO4)ncnc3c2c2c1CCC(C)(C)C2 (stereo not drawn) [Example 54, N^2-{5-[Ethyl(methyl)amino]-2,2-dimethyl-1,2,3,4-tetrahydropyrimido[4′,5′:4,5]thieno[2,3-c]isoquinolin-8-yl}-N^1-(tetrahydrofuran-2-ylmethyl)glycinamide]
4.8 nM	CC(C)Cc1nc2sc3c(NCCCN4CCCC4=O)ncnc3c2c2c1CCC(C)(C)C2 [Example 60, 1-{3-[(5-Isobutyl-2,2-dimethyl-1,2,3,4-tetrahydropyrimido[4′,5′:4,5]thieno[2,3-c]isoquinolin-8-yl)amino]propyl}pyrrolidin-2-one]
3.8 nM	CC1(C)CCc2c(-c3ccco3)nc3sc4c(NCCN5CCOCC5)ncnc4c3c2C1 [Example 62, 5-(2-Furyl)-2,2-dimethyl-N-(2-morpholin-4-ylethyl)-1,2,3,4-tetrahydropyrimido[4′,5′:4,5]thieno[2,3-c]isoquinolin-8-amine]
4.6 nM	CN(C)c1nc2sc3c(NCc4cccnc4)ncnc3c2c2c1CC(C)(C)C2 [Example 79, N^4,N^4,2,2-Tetramethyl-N-(pyridin-3-ylmethyl)-2,3-dihydro-1H-cyclopenta[4′,5′]pyrido[3′,2′:4,5]thieno[3,2-d]pyrimidin-4,7-diamine]

From patent US20090029955A1, “Pyridothienopyrimidine Derivatives” (priority 2004, published 2009)
